# Patent US12419889B2, “Methods of treating chronic spontaneous urticaria using a bruton's tyrosine kinase inhibitor” (NOVARTIS AG, priority 2019, dated 2025)
# Assays:
# BTK = biological target: T1, BTK (Homo sapiens, UniProt Q06187); experiment: BTK occupancy in human whole blood (free and total BTK, ELISA on MSD platform); type: in vivo
# T1 construct: from tissue; host or cells: human whole (peripheral) blood of healthy volunteers and atopic subjects
# Description: Pharmacodynamics (PD) was characterized by assessing target occupancy and distal pathway inhibition. Measurements of BTK occupancy in human whole blood (derived as ratio of free and total BTK), served as direct marker of therapeutic target engagement.
# Compound of formula (I) is an irreversible inhibitor of BTK, the extent and duration of BTK occupancy were determined.
# The relationship between dose and pharmacodynamics was characterized by measurements of BTK occupancy in human blood (derived as ratio of free and total BTK), a direct marker of therapeutic target engagement. BTK occupancy was determined for single ascending doses ranging 0.5 to 400 mg, for q.d. multiple ascending doses ranging from of 10 mg and 400 mg, and for b.i.d. multiple ascending doses of 100 mg and 200 mg.
# [1] = test system: passive cutaneous anaphylaxis (PCA); experiment: Passive cutaneous anaphylaxis (PCA) model, Evans blue extravasation; type: in vivo; conditions: mouse PCA
# Description: The effects of compound (I) on acute skin hypersensitivity were also assessed after two oral doses of compound (I) in the mouse of model of passive cutaneous anaphylaxis (PCA) (Ovary 1958). The mouse PCA model was used at a low dose of sensitizing IgE antibody to minimize complement-dependent anaphylatoxins (Schafer et al. 2013, The journal of allergy and clinical immunology, 131(2), pp. 541; Hata et al. 1998, Journal of Experimental Medicine, 187(8), pp. 1235). […] (FIG. 3). Spleen occupancy at 2.5 hours post last dose ranged from 89.1 to 99.7% (representing peak occupancy) (FIG. 4).
# T1 sequence (Q06187 whole entry): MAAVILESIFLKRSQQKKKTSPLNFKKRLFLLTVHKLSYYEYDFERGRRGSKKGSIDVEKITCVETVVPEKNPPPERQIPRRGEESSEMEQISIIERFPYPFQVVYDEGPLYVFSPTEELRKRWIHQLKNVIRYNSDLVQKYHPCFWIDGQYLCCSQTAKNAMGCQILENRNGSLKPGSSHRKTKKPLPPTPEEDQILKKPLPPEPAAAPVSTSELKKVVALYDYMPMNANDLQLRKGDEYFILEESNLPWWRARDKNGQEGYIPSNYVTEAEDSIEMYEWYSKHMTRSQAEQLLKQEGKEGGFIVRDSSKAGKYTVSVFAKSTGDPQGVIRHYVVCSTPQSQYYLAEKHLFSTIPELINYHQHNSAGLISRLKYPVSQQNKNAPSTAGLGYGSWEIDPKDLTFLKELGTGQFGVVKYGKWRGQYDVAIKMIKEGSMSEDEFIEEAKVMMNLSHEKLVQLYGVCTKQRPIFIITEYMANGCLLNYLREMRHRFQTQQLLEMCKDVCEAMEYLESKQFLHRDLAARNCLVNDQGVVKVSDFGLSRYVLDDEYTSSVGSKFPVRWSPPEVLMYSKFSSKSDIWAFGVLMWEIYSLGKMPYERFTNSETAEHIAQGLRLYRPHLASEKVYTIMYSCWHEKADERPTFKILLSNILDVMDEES
smiles,measurement,setting,value
"C=CC(=O)N(C)CCOc1c(N)ncnc1-c1cc(F)cc(NC(=O)c2ccc(C3CC3)cc2F)c1C [Compound (I), N-(3-(6-Amino-5-(2-(N-methylacrylamido)ethoxy)pyrimidin-4-yl)-5-fluoro-2-methylphenyl)-4-cyclopropyl-2-fluorobenzamide]",BTK occupancy in blood,BTK; 10 mg q.d.,nearly complete
same,duration of BTK occupancy in blood,BTK; blood,> 24 h
same,median BTK turnover T1/2,"BTK; blood, after single dose",about 48 hours
same,time to refresh BTK protein pool to pre-dose levels,"BTK; blood, after single dose",about 10 days
same,duration of sustained BTK occupancy,"BTK; blood, single doses of 30 mg and higher",> 24 h
same,time of peak target (BTK) occupancy post dose,BTK; peripheral blood,0.5 h
same,inhibition of skin edema (Evans blue extravasation),[1]; two oral doses of 3 mg/kg 14 and 2 hours before challenge,60.7%
same,inhibition of skin edema (Evans blue extravasation),[1]; two oral doses of 10 mg/kg 14 and 2 hours before challenge,66.9%
same,inhibition of skin edema (Evans blue extravasation),[1]; two oral doses of 30 mg/kg 14 and 2 hours before challenge,69.2%
same,inhibition of skin edema (Evans blue extravasation),[1]; two oral doses of 100 mg/kg 14 and 2 hours before challenge,87.4%
